Data as given in paper PMC11206396 (Chemical Science, 2024).
Read-outs that look alike come from different tables or passages of the source. Positions of bridges follow the written chain, without caps; N, C: chain ends. Residues, ends and D or L forms follow the SMILES beside them. Chains are numbered I, II in the order given. *: point of attachment. X5 = Cc1cc(NC(=O)CCC(=O)O)ccc1-c1cc(CN2CCN(CC(=O)O)CCN(CC(=O)O)CCN(CC(=O)O)CC2)nc(C(=O)*)c1; X2 = CC(=O)Nc1ccc(-c2cc(CN3CCN(CC(=O)O)CCN(CC(=O)O)CCN(CC(=O)O)CC3)nc(C(=O)*)c2)c(C)c1; X4 = Cc1cc(NC(=O)CCN)ccc1-c1cc(CN2CCN(CC(=O)O)CCN(CC(=O)O)CCN(CC(=O)O)CC2)nc(C(=O)*)c1; X1 = CC(=O)Nc1ccc(-c2cc(CN3CCN(CC(=O)O)CCN(CC(=O)O)CCN(CC(=O)O)CC3)nc(C(=O)*)c2)cc1; X3 = COc1ccc(-c2cc(CN3CCN(CC(=O)O)CCN(CC(=O)O)CCN(CC(=O)O)CC3)nc(C(=O)*)c2)c(C)c1

Key:
HeLa cells [1] = assay: MTT proliferation assay (cytotoxicity)
HeLa cells [2] = assay: Two-photon microscopy (2PM) imaging of live cells: internalization and cytosolic delivery; assay type: cell-based; conditions: for co-internalization of a Tb3+/Eu3+ probe mixture: 1 h, Tb probe 10 μM + dTAT[Eu·L-Ar-NHAc] 5 μM; for co-internalization of a Tb3+/Eu3+ probe mixture / cytosolic delivery (diffuse Ln3+ emission): 2P excitation 720 nm; for cytosolic delivery (diffuse Ln3+ emission): 10 μM
MRC5 cells = assay: as above; assay type: cell-based; conditions: 1 h, 10 μM
Method: (§1) Fig. 7 2PM imaging (λex = 720 nm) of living HEK293T (A) and MRC5 (B) cells incubated 1 h with dTAT[Eu·L-Ar-NHAc] (10 μM) in RPMI medium. Top: DIC, emission recorded using a 465–680 nm bp filter and merge; Bottom: linear unmixing of autofluorescence (AF) and Eu^3+ emission and merge. Scale bars correspond to 10 μm. […]
(§2) dependence for each sample (Fig. S9), the incident power was adjusted to 35 mW to characterize the two-photon absorption spectra. Calibration of the 2P absorption spectra was performed at each excitation wavelength by comparison with that of fluorescein (10 µM, pH 11) as reference compound.[12]
(§3) General: HeLa, MRC5 and HEK293 cell lines were purchased from the ATCC and agreed by French ethic boards […]
(§4) Cell culture: HeLa cells were grown in RPMI medium supplemented with 10% fetal bovine serum (v/v) at 37°C in a 5% CO2 humidified atmosphere.
(§5) Peptides delivery in live cells: HeLa cells were seeded at 3´10^4 cells/well onto an 8-chamber Labtek-I coverglass system.
(§6) After 24 h, cells were washed three times with PBS. Cells were incubated with dTAT [Ln·L] (10 µM) in RPMI medium (without phenol red and without serum) or PBS at 37°C for 1 h. […]
(§7) Temporal Sampling Lifetime Imaging Microscopy (TSLIM) was used to record luminescence lifetime decay in cells (single pulsed excitation with the 7.56 μs temporal resolution).[13] […]

HEK293T cells = assay: as above; assay type: cell-based; conditions: 1 h, 10 μM
Method: as §1, §2, §3, §4, §5, §6, §7

[3] = live HeLa cells, 1 h incubation
[4] = read-out: IC50 (concentration causing a 50% reduction in proliferation), MTT proliferation assay, 2 h incubation

## CC(=O)Nc1ccc(-c2cc(CN3CCN(CC(=O)O)CCN(CC(=O)O)CCN(CC(=O)O)CC3)nc(C(=O)NCCCC[C@H](NC(=O)[C@@H](N)CSSC[C@H](N)C(=O)N[C@@H](CCCCNC(=O)c3cc(-c4ccc(NC(C)=O)cc4)cc(CN4CCN(CC(=O)O)CCN(CC(=O)O)CCN(CC(=O)O)CC4)n3)C(=O)N[C@@H](CCCNC(=N)N)C(=O)N[C@@H](CCCCN)C(=O)N[C@@H](CCCCN)C(=O)N[C@@H](CCCNC(=N)N)C(=O)N[C@@H](CCCNC(=N)N)C(=O)N[C@@H](CCC(N)=O)C(=O)N[C@@H](CCCNC(=N)N)C(=O)N[C@@H](CCCNC(=N)N)C(=O)N[C@@H](CCCNC(=N)N)C(=O)NCC(N)=O)C(=O)N[C@@H](CCCNC(=N)N)C(=O)N[C@@H](CCCCN)C(=O)N[C@@H](CCCCN)C(=O)N[C@@H](CCCNC(=N)N)C(=O)N[C@@H](CCCNC(=N)N)C(=O)N[C@@H](CCC(N)=O)C(=O)N[C@@H](CCCNC(=N)N)C(=O)N[C@@H](CCCNC(=N)N)C(=O)N[C@@H](CCCNC(=N)N)C(=O)NCC(N)=O)c2)cc1 [dTAT[Eu·L-Ar-NHAc]] (I: H-CK(X1)RKKRRQRRRG-NH2 / II: H-CK(X1)RKKRRQRRRG-NH2; disulfide I:1-II:1; N-terminus assumed)
HeLa cells [1]; MTT assay, 10 μM
  toxicity at the concentration used for 2PM: no toxicity
HeLa cells [2]; HeLa cells, 5 μM, 1 h incubation, over 6 hours after washing, determined visually
  number of cells showing cytosolic staining (diffuse Eu3+ emission): 34–38%
HeLa cells [2]; HeLa cells
  co-internalization of a Tb3+/Eu3+ probe mixture: co-internalized
HeLa cells [2]; live HeLa cells, 2.5 μM, 1 h incubation
  cell staining pattern at low concentration: only show punctate Eu^3+ around the nucleus
HeLa cells [2]; [3]
  cytosolic delivery (diffuse Ln3+ emission): cytosolic delivery
MRC5 cells
  cytosolic delivery (diffuse Eu3+ localization): successful cytosolic delivery
HEK293T cells
  cytosolic delivery (diffuse Eu3+ localization): successful cytosolic delivery

## CC(=O)Nc1ccc(-c2cc(CN3CCN(CC(=O)O)CCN(CC(=O)O)CCN(CC(=O)O)CC3)nc(C(=O)NCCCC[C@H](NC(=O)[C@@H](N)CSSC[C@H](N)C(=O)N[C@@H](CCCCNC(=O)c3cc(-c4ccc(NC(C)=O)cc4C)cc(CN4CCN(CC(=O)O)CCN(CC(=O)O)CCN(CC(=O)O)CC4)n3)C(=O)N[C@@H](CCCNC(=N)N)C(=O)N[C@@H](CCCCN)C(=O)N[C@@H](CCCCN)C(=O)N[C@@H](CCCNC(=N)N)C(=O)N[C@@H](CCCNC(=N)N)C(=O)N[C@@H](CCC(N)=O)C(=O)N[C@@H](CCCNC(=N)N)C(=O)N[C@@H](CCCNC(=N)N)C(=O)N[C@@H](CCCNC(=N)N)C(=O)NCC(N)=O)C(=O)N[C@@H](CCCNC(=N)N)C(=O)N[C@@H](CCCCN)C(=O)N[C@@H](CCCCN)C(=O)N[C@@H](CCCNC(=N)N)C(=O)N[C@@H](CCCNC(=N)N)C(=O)N[C@@H](CCC(N)=O)C(=O)N[C@@H](CCCNC(=N)N)C(=O)N[C@@H](CCCNC(=N)N)C(=O)N[C@@H](CCCNC(=N)N)C(=O)NCC(N)=O)c2)c(C)c1 [dTAT[Tb·L-^MeAr-NHAc]] (I: H-CK(X2)RKKRRQRRRG-NH2 / II: H-CK(X2)RKKRRQRRRG-NH2; disulfide I:1-II:1)
HeLa cells [1]; [4]
  IC50: 7.6 ± 1.6 µM
HeLa cells [1]; read-out: IC50 (concentration causing a 50% reduction in proliferation), MTT proliferation assay, 2 h incubation, listed as dTAT[Tb·L-^MeAr-HNAc]
  IC50: < 10 µM
HeLa cells [2]; [3]
  cytosolic delivery (diffuse Ln3+ emission): cytosolic delivery

## Cc1cc(NC(=O)CCC(=O)O)ccc1-c1cc(CN2CCN(CC(=O)O)CCN(CC(=O)O)CCN(CC(=O)O)CC2)nc(C(=O)NCCCC[C@H](NC(=O)[C@@H](N)CSSC[C@H](N)C(=O)N[C@@H](CCCCNC(=O)c2cc(-c3ccc(NC(=O)CCC(=O)O)cc3C)cc(CN3CCN(CC(=O)O)CCN(CC(=O)O)CCN(CC(=O)O)CC3)n2)C(=O)N[C@@H](CCCNC(=N)N)C(=O)N[C@@H](CCCCN)C(=O)N[C@@H](CCCCN)C(=O)N[C@@H](CCCNC(=N)N)C(=O)N[C@@H](CCCNC(=N)N)C(=O)N[C@@H](CCC(N)=O)C(=O)N[C@@H](CCCNC(=N)N)C(=O)N[C@@H](CCCNC(=N)N)C(=O)N[C@@H](CCCNC(=N)N)C(=O)NCC(N)=O)C(=O)N[C@@H](CCCNC(=N)N)C(=O)N[C@@H](CCCCN)C(=O)N[C@@H](CCCCN)C(=O)N[C@@H](CCCNC(=N)N)C(=O)N[C@@H](CCCNC(=N)N)C(=O)N[C@@H](CCC(N)=O)C(=O)N[C@@H](CCCNC(=N)N)C(=O)N[C@@H](CCCNC(=N)N)C(=O)N[C@@H](CCCNC(=N)N)C(=O)NCC(N)=O)c1 [dTAT[Tb·L-^MeAr-NHSuc(−)]] (I: H-CK(X5)RKKRRQRRRG-NH2 / II: H-CK(X5)RKKRRQRRRG-NH2; disulfide I:1-II:1)
HeLa cells [2]; [3]
  cytosolic delivery (diffuse Ln3+ emission): efficiently delivered to the cytosol

## Cc1cc(NC(=O)CCN)ccc1-c1cc(CN2CCN(CC(=O)O)CCN(CC(=O)O)CCN(CC(=O)O)CC2)nc(C(=O)NCCCC[C@H](NC(=O)[C@@H](N)CSSC[C@H](N)C(=O)N[C@@H](CCCCNC(=O)c2cc(-c3ccc(NC(=O)CCN)cc3C)cc(CN3CCN(CC(=O)O)CCN(CC(=O)O)CCN(CC(=O)O)CC3)n2)C(=O)N[C@@H](CCCNC(=N)N)C(=O)N[C@@H](CCCCN)C(=O)N[C@@H](CCCCN)C(=O)N[C@@H](CCCNC(=N)N)C(=O)N[C@@H](CCCNC(=N)N)C(=O)N[C@@H](CCC(N)=O)C(=O)N[C@@H](CCCNC(=N)N)C(=O)N[C@@H](CCCNC(=N)N)C(=O)N[C@@H](CCCNC(=N)N)C(=O)NCC(N)=O)C(=O)N[C@@H](CCCNC(=N)N)C(=O)N[C@@H](CCCCN)C(=O)N[C@@H](CCCCN)C(=O)N[C@@H](CCCNC(=N)N)C(=O)N[C@@H](CCCNC(=N)N)C(=O)N[C@@H](CCC(N)=O)C(=O)N[C@@H](CCCNC(=N)N)C(=O)N[C@@H](CCCNC(=N)N)C(=O)N[C@@H](CCCNC(=N)N)C(=O)NCC(N)=O)c1 [dTAT[Tb·L-^MeAr-NHβAla(+)]] (I: H-CK(X4)RKKRRQRRRG-NH2 / II: H-CK(X4)RKKRRQRRRG-NH2; disulfide I:1-II:1)
HeLa cells [2]; HeLa cells
  co-internalization of a Tb3+/Eu3+ probe mixture: co-internalized
HeLa cells [2]; [3]
  cytosolic delivery (diffuse Ln3+ emission): efficiently delivered to the cytosol

## COc1ccc(-c2cc(CN3CCN(CC(=O)O)CCN(CC(=O)O)CCN(CC(=O)O)CC3)nc(C(=O)NCCCC[C@H](NC(=O)[C@@H](N)CSSC[C@H](N)C(=O)N[C@@H](CCCCNC(=O)c3cc(-c4ccc(OC)cc4C)cc(CN4CCN(CC(=O)O)CCN(CC(=O)O)CCN(CC(=O)O)CC4)n3)C(=O)N[C@@H](CCCNC(=N)N)C(=O)N[C@@H](CCCCN)C(=O)N[C@@H](CCCCN)C(=O)N[C@@H](CCCNC(=N)N)C(=O)N[C@@H](CCCNC(=N)N)C(=O)N[C@@H](CCC(N)=O)C(=O)N[C@@H](CCCNC(=N)N)C(=O)N[C@@H](CCCNC(=N)N)C(=O)N[C@@H](CCCNC(=N)N)C(=O)NCC(N)=O)C(=O)N[C@@H](CCCNC(=N)N)C(=O)N[C@@H](CCCCN)C(=O)N[C@@H](CCCCN)C(=O)N[C@@H](CCCNC(=N)N)C(=O)N[C@@H](CCCNC(=N)N)C(=O)N[C@@H](CCC(N)=O)C(=O)N[C@@H](CCCNC(=N)N)C(=O)N[C@@H](CCCNC(=N)N)C(=O)N[C@@H](CCCNC(=N)N)C(=O)NCC(N)=O)c2)c(C)c1 [dTAT[Tb·L-^MeAr-OMe]] (I: H-CK(X3)RKKRRQRRRG-NH2 / II: H-CK(X3)RKKRRQRRRG-NH2; disulfide I:1-II:1)
HeLa cells [1]; [4]
  IC50: 18 ± 3 µM
HeLa cells [2]; [3]
  cytosolic delivery (diffuse Ln3+ emission): successful cytosolic delivery
